Patent US7214669B2, “Tetracycline derivatives and methods of use thereof” (Tetragenex Pharmaceuticals, Inc., priority 2001, dated 2007)
“And” between values parts separate entries of the source, which are not always exact repeats. Identical values can stand only once.

Columns and labels:
Human recombinant MMP3 = Human recombinant MMP3 (Homo sapiens, UniProt P08254); experiment: MMP3 (Stromelysin 1) inhibition, 14C casein release; assay type: biochemical; details: 37° C., 16 hours; read-out: MMP-3 inhibitory activity, IC50
Chain of Human recombinant MMP3 (P08254 100-477): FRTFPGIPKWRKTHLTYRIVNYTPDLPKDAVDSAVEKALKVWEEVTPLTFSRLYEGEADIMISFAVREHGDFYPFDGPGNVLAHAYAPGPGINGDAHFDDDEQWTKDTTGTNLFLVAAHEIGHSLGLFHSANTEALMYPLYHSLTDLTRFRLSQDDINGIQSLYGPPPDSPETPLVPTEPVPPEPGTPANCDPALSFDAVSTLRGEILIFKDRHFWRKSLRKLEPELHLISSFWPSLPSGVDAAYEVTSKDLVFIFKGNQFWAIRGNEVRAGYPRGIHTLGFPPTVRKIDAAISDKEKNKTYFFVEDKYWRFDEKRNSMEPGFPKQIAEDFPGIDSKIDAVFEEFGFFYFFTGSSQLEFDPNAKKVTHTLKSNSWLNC
Procedure: Protocol for Measuring MMP3 (Stromelysin 1) Inhibition
• 100 μg ^14C casein (7000 dpm) • 50 mM Tris HCl, pH 7.9 • 15 mM CaCl2, 0.02% azide • Human recombinant MMP3, 0.25–1.0 nM • ±tetracycline (up to 1 mM) in a total volume of 250 μl.
Incubations were at 37° C. for 16 hours. The reaction was stopped by the addition of 500 μl cold 18% TCA and standing on ice for 15 minutes. TCA precipitates were removed by centrifugation at 10,000 g for 10 minutes at 4° C. and 200 μl supernatant was taken for scintillation counting. Only data derived from within the linear part of the assay (10–60% lysis) were utilized. The percentage inhibition of MMP3 by each concentration of the candidate tetracycline was plotted to derive the IC50 value, using linear regression analysis.

[1] = test system: Ark human myeloma cancer cells; experiment: Membrane Invasion Culture System (MICS) chemo-invasion assay; assay type: cell-based; details: 24 hours, + = increased invasiveness
Outline: (§1)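 Fifty thousand cells were seeded above a 35 μm laminin/collagen IV/gelatin barrier on a 10 μm-pore filter, with serum-free RPMI plus 50% fibroblast-conditioned medium below as chemoattractant. Compound at 1, 10 or 25 μg/ml, or DMSO vehicle, was present for 24 h. Invaded cells were collected, Wright-stained and counted over 5 fields.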

[2] = test system: MDA-MB-231 human breast cancer cells; experiment: as above; assay type: cell-based; details: 24 hours, + = increased invasiveness
Outline: as §1

[3] = test system: PC-3 ML human prostate cancer cells; experiment: as above; assay type: cell-based; details: 24 hours, + = increased invasiveness
Outline: as §1

[4] = test system: C8161 human melanoma cells; experiment: as above; assay type: cell-based; details: 24 hours, + = increased invasiveness
Outline: as §1

[5] = test system: Arp-1 human myeloma cancer cells; experiment: as above; assay type: cell-based; details: 24 hours, + = increased invasiveness
Outline: as §1

[6] = test system: RPMI-8226 human myeloma cancer cells; experiment: as above; assay type: cell-based; details: 24 hours, + = increased invasiveness
Outline: as §1

Human recombinant MMP1 = molecular target: T1, Human recombinant MMP1 (Homo sapiens, UniProt P03956); experiment: MMP1 (Collagenase-1) inhibition, 14C collagen release; assay type: biochemical; details: 35° C., 5 hours; read-out: MMP-1 inhibitory activity, IC50
T1 sequence (P03956 100-469): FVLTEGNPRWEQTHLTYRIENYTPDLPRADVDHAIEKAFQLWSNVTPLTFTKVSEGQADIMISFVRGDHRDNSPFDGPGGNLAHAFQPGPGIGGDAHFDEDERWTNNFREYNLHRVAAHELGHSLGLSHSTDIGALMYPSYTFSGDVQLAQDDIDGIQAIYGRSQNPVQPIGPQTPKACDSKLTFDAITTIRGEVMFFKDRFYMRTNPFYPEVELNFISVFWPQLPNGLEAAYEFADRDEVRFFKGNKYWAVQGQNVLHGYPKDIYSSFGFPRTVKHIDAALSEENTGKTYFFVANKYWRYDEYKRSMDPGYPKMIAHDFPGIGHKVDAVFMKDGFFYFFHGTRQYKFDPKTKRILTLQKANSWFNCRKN
Procedure: Protocol for Measuring MMP1 (Collagenase-1) Inhibition by Tetracycline Derivatives
MMP1 activity was determined by the release of soluble ^14C labelled collagen fragments from ^14C acetylated rat skin type I collagen (Methods in Enzymology 80 711, 1981).
• 100 μg ^14C labelled rat skin type I collagen (5–6000 dpm) • 50 mM Tris HCl pH 7.9 • 15 mM CaCl2 0.02% azide • Human recombinant MMP1 3–4 nM • ±Tetracycline (up to 1 mM) in a total volume of 300 μl.
Incubations were at 35° C. for 5 hours. Uncleaved collagen fibrils (which form within the first 10 minutes) were removed by centrifugation at 10,000 g, 4° C., 10 minutes. 200 μl supernatant were counted in Packard Opti Phase Supermix scintillation fluid using a scintillation counter. Only data derived from within the linear part of the assay (10–70% lysis of the collagen) were utilized. Based on percentage inhibition of the activity of MMP1 alone by a range of concentrations of each sample, the IC50 value for each tetracycline was calculated by linear regression analysis.

Human recombinant MMP9 = Human recombinant MMP9 (Homo sapiens, UniProt P14780); experiment: MMP9 (Gelatinase B) inhibition, 14C gelatin release; assay type: biochemical; details: 37° C., 16 hours; read-out: MMP-9 inhibitory activity, IC50
Chain of Human recombinant MMP9 (P14780 94-707): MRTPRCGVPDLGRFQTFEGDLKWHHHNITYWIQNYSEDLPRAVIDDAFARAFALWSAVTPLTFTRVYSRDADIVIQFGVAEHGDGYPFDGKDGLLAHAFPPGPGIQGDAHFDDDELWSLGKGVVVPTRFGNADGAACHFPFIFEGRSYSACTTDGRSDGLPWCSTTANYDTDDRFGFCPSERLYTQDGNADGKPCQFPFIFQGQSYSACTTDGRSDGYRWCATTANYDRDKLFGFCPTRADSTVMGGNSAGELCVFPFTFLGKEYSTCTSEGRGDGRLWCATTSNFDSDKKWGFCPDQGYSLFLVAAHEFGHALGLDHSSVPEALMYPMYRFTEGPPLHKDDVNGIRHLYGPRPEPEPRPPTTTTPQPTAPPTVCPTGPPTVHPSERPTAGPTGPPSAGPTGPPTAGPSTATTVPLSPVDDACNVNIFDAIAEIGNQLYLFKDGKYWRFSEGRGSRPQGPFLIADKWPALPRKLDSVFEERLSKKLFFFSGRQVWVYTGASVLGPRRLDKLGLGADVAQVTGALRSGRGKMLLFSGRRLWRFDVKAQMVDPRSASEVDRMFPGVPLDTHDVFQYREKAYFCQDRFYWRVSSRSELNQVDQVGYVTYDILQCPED
Procedure: Protocol for Measuring MMP9 (Gelatinase B) Inhibition
MMP9 activity was determined by the release of trichloracetic acid, TCA soluble fragments from ^14C acetylated rat skin type I (Methods in Enzymology 248, 470, 1995. Biochem. J. 195, 1981)
• 100 μg ^14C labelled gelatin (collagen denatured 60° C. 20 min) • 50 mM Tris HCl pH 7.9 • 15 mM CaCl2, 0.02% azide • Human recombinant MMP9, 1.2–2 nM • ±Tetracycline (up to 1 mM) in a total volume of 250 μl.
Incubations were at 37° C. for 16 hours. The incubations were stopped by cooling the incubations and addition of 50 μl cold 90% (w/v) trichloracetic acid with careful mixing. TCA precipitation was allowed to proceed for 15 minutes at 4° C. prior to centrifugation at 10,000 g for 10 minutes at 4° C. 200 μl of the TCA supernatant was taken for the determination of radioactive content by scintillation counting (Packard Opti Phase Supermix scintillation fluid). Only data derived from within the linear part of the assay (10–70% lysis) were utilized. The percentage inhibition of MMP9 by each tetracycline concentration were plotted to derive the IC50 value.

Human recombinant MMP14 = Human recombinant MMP14 (Homo sapiens, UniProt P50281); experiment: MMP14 (MTI-MMP) inhibition, 14C collagen release; assay type: biochemical; details: 35° C., 15 hours; read-out: MMP-14 inhibitory activity, IC50
MMP2 (Gelatinase A) = molecular target: T2, MMP2 (Gelatinase A) (Homo sapiens, UniProt P08253); experiment: MMP2 (Gelatinase A) inhibition, 14C gelatin release; assay type: biochemical; details: 37° C., 16 hours; read-out: MMP-2 inhibitory activity, IC50
T2 sequence (P08253 110-660): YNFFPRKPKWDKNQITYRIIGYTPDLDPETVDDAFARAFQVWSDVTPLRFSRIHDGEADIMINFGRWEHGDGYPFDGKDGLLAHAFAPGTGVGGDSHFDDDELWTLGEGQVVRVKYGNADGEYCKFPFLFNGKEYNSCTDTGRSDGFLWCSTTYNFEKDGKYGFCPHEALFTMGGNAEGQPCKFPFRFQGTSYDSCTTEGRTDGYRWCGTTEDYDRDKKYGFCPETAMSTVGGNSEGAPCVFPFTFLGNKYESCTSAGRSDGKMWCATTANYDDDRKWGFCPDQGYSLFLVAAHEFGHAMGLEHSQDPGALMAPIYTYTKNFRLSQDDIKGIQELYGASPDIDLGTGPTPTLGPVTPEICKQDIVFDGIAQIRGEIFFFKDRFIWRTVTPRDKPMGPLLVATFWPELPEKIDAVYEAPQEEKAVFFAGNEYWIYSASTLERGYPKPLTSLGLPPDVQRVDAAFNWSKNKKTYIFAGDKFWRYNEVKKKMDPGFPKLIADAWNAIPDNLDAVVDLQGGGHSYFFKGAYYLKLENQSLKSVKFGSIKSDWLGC

[7] = Dunning MAT LyLu tumor model, weekly body weight; assay type: in vivo; details: compared to the control group
Procedure: (§2) Fresh dosing solutions containing 10 mg/ml of each test article in 2% carboxymethylcellulose were prepared daily and used in the testing.
(§3) Three groups of animals (10/group) were dosed by gavage with either vehicle, or one of the two analogs daily for three weeks, and then three times per week until death or sacrifice. Dosing was begun seven days prior to implantation of the MAT LyLu tumor cells by tail vein injection. Approximately 0.1 ml of tumor cell suspension was injected into one of the lateral tail veins. The dose to be chosen was based on two factors: (1) efficacy and (2) morbidity associated with the analog, if any.

Human recombinant MMP7 = molecular target: T3, Human recombinant MMP7 (Homo sapiens, UniProt P09237); experiment: MMP7 (Matrilysin) inhibition, 14C casein release; assay type: biochemical; details: 37° C., 16 hours; read-out: MMP-7 inhibitory activity, IC50
T3 sequence (P09237 95-267): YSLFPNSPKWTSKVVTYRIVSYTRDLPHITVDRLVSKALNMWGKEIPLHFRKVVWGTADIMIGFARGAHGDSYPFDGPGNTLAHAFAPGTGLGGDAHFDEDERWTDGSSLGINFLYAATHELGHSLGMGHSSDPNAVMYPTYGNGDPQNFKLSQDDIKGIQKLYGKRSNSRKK
Procedure: MMP7 activity was determined by the release of trichloracetic acid, TCA, soluble fragments from ^14C acetylated β casein (Sigma) as described in Methods in Enzymology 248, 451 (1995).
• 100 μg ^14C casein (7000 dpm) • 50 mM Tris HCl, pH 7.9 • 15 mM CaCl2, 0.02% azide • Human recombinant MMP7, 1.5 nM • ±tetracycline (up to 1 mM) in a total volume of 250 μl.
Incubations were at 37° C. for 16 hours. The incubation was stopped by the addition of 500 μl cold 18% TCA and standing on ice for 15 minutes. TCA precipitates were removed by centrifugation at 10,000 g for 10 minutes at 4° C., and 200 μl supernatant was taken for scintillation counting. Only data derived from within the linear part of the assay (10–60% lysis) were utilized. The percentage inhibition of MMP7 by each concentration of the candidate tetracycline were plotted to derive the IC50 value.

MAT LyLu tumor = experiment: Dunning MAT LyLu tumor model, survival; assay type: in vivo, Copenhagen rats; details: for Surviving Number: 10/group, dosed by gavage; for surviving number after tumor implantation (in words): compared to the control group
Procedure: as §2, §3

[8] = 14 days post tumor implantation
[9] = 17 days post tumor implantation
[10] = 24 days post tumor implantation
[11] = 27 days post tumor implantation
[12] = 28 days post tumor implantation
[13] = 29 days post tumor implantation
[14] = 30 days post tumor implantation
[15] = 34 days post tumor implantation
[16] = 42 days post tumor implantation

Structure (SMILES)	percent inhibition, ARK ([1]; 1 ug/mL)	percent inhibition, MDA-MB-231 (Breast) ([2]; 10 ug/mL)	percent inhibition, PC-3 ML (Prostrate) ([3]; 10 ug/mL)	percent inhibition, C8161 (Melanoma) ([4]; 25 ug/mL)	percent inhibition, ARP-1 ([5]; 1 ug/mL)	percent inhibition, ARP-1 ([5]; 10 ug/mL)	percent inhibition, ARP-1 ([5]; 25 ug/mL)	body weight changes [7]	Surviving Number (MAT LyLu tumor; [8])	Surviving Number (MAT LyLu tumor; [9])	Surviving Number (MAT LyLu tumor; [10])	Surviving Number (MAT LyLu tumor; [11])	Surviving Number (MAT LyLu tumor; [12])	Surviving Number (MAT LyLu tumor; [13])	Surviving Number (MAT LyLu tumor; [14])	Surviving Number (MAT LyLu tumor; [15])	Surviving Number (MAT LyLu tumor; [16])	surviving number after tumor implantation (in words) (MAT LyLu tumor)	further results
CC1c2ccc([N+](=O)[O-])c(O)c2C(=O)C2=C(O)C3(O)C(=O)C(C(N)=O)=C(O)C(N(C)C)C3C(O)C21 (centres unmarked) [Compound 1, 9-nitro-6-deoxy-5-hydroxytetracycline H2SO4]	9% and 13%	20^B percent and 25^B percent	47^B percent and 24^B percent	35^B percent and 56^B percent	+9%	+13%	1%	indistinguishable body weight changes	8	8	8	8	8	6	4	4	4	marked increase in surviving number	IC50 (Human recombinant MMP3): 258 µM; percent inhibition, RPMI-8226 (Multiple Myeloma) ([6]; 1 ug/mL): 20% and 21^B percent; percent inhibition, RPMI-8226 (Multiple Myeloma) ([6]; 25 ug/mL): 15% and 29^B percent; IC50 (Human recombinant MMP1): 267 µM; IC50 (Human recombinant MMP9): 43 µM; IC50 (Human recombinant MMP14): 86 µM; IC50 (MMP2 (Gelatinase A)): > 700 µM; IC50 (Human recombinant MMP7): 815 µM
CC1c2ccc(N)c(O)c2C(=O)C2=C(O)C3(O)C(=O)C(C(N)=O)=C(O)C(N(C)C)C3C(O)C21 (centres unmarked) [Compound 2, 9-amino-6-deoxy-5-hydroxytetracycline H2SO4]	20^B percent	15%	8%	27^B percent	10%	7%	6%	indistinguishable body weight changes	10	10	10	10	9	9	7	7	7	marked increase in surviving number	percent inhibition, ARK ([1]; 10 ug/mL): 9^B percent; percent inhibition, ARK ([1]; 25 ug/mL): 10%; percent inhibition, MDA-MB-231 (Breast) ([2]; 1 ug/mL): 20%; percent inhibition, MDA-MB-231 (Breast) ([2]; 25 ug/mL): 30^B percent; percent inhibition, PC-3 ML (Prostrate) ([3]; 1 ug/mL): 20%; percent inhibition, PC-3 ML (Prostrate) ([3]; 25 ug/mL): 15%; percent inhibition, C8161 (Melanoma) ([4]; 1 ug/mL): 20^B percent; percent inhibition, C8161 (Melanoma) ([4]; 10 ug/mL): 25^B percent; percent inhibition, RPMI-8226 (Multiple Myeloma) ([6]; 25 ug/mL, listed as 5): 36% and 42^B percent
